Test results as given in ChEMBL document CHEMBL5052852, “Substituted hydantoinamides as adamts7 antagonists” (2021).

Tests used:
[1] = Inhibition of recombinant rat/human ADAMTS7 hybrid using HiLyteFluor-488 DELSSMVLELRGLRT-K(QXL520)-E-NH2 as substrate incubated for 120 mins and measured by FRET assay
[2] = Inhibition of recombinant rat/human ADAMTS12 hybrid using HiLyteFluor-488 DELSSMVLELRGLRT-K(QXL520)-E-NH2 as substrate incubated for 120 mins and measured by FRET assay

SMILES | IC50 [1] [nM] | IC50 [2] [nM]
CCC(C)C1(CNC(=O)c2cnn(-c3ccc(F)cc3)n2)NC(=O)NC1=O (stereo in doubt; form 1) | 62 | 2900
CCC(C)C1(CNC(=O)c2cnn(-c3ccc(F)cc3)n2)NC(=O)NC1=O (stereo in doubt; form 2) | 37 | 1000
CC1(C)CC1C1(CNC(=O)c2cnn(-c3ccccc3)n2)NC(=O)NC1=O (stereo in doubt; form 2) | 38 | 2000
O=C1NC(=O)C(CNC(=O)c2cnn(-c3ccccc3)n2)(C2CCCOC2)N1 (stereo in doubt; form 2) | 250 | 6500
O=C1NC(=O)C(CNC(=O)c2cnn(-c3ccc(F)cc3)n2)(c2ccccn2)N1 (stereo in doubt; form 2) | 590 | 50000
